Assay results published in patent publication US8541243B2, “Method for assessment of folate phenotypes, disease risk and response to therapy” (The Trustees of the University of Pennsylvania, priority 2008, dated 2013).

Assays:
[1] = Stability of folates under the acidic/basic conditions of sample work-up; format: physicochemical
Description: (§1) An aliquot of the resulting solution (50 μL) was then analyzed by LC-MRM/MS.
5-FTHF and 10-FTHF undergo dehydration to 5,10-MTHF under acidic conditions in a pH-dependent manner (FIG. 1). In contrast, under neutral or alkaline pH conditions, 5,10-MTHF is converted into 10-FTHF, which then slowly interconverts with 5-FTHF. These different forms of folate are present in RBCs primarily in polyglutamated forms. […] This made it difficult to reliably quantify the individual amounts of 5-FTHF, 10-FTHF, and 5,10-MTHF in the RBCs. Conversion of 5-FTHF and 10-FTHF into 5,10-MTHF proceeded quantitatively at pH 1.5. As a result, it was possible to accurately quantify the pool of folate precursors available for conversion into 5,10-METHF simply by acidifying the RBC extract (FIG. 1). […] They were then acidified to pH 1.5 with 1M HCl ready for analysis of the 5-METHF precursors as 5,10-MTHF (FIG. 1). The [^13C5]-5-FTHF internal standard was quantitatively converted into [^13C5]-5,10-MTHF, which made it possible to accurately quantify the amount of unlabeled 5-FTHF and 10-FTHF, as well as any 5,10-MTHF that had been present in the sample originally. […] However, it is so rapidly utilized in cellular processes by enzymes such as MTHFR, serine hydroxymethyltransferase, and thymidylate synthase (FIG. 6) that it is unlikely to be present in significant quantities.

[2] = test system: RBC folate; experiment: RBC folate derivatives (LC-MRM/MS) before and after low dose MTX treatment of arthritis patients; format: in vivo, human; settings: ratio, 24 wk of MTX, Caucasians, 115 pairs
Description: Eight calibration standards were prepared in the range 4.5 to 900 nmol/L in 1% ascorbic acid and 10 mM 2-mercaptoethanol (to prevent oxidation). To 500 μL of whole blood (1:10 diluted with 1% ascorbic acid) was added 20 μL of internal standard solution (150 pg/μL each of [^13C5]-FA, [^13C5]-THF, [^13C5]-5-MTHF, and [^13C5]-5-FTHF). For hydrolysis of folylpolyglutamates, 1N sodium hydroxide (6 μL) was added to each tube to adjust the pH to 5.0 and the samples were mixed immediately. In selected experiments, pteroylhepta-γ-L-glutamic acid (5 ng) was added to replicate […] RBC preparations from five different subjects in order to monitor the efficiency of folylpolyglutamate hydrolysis. […]
as §1
RBC folate concentrations were calculated according to the method of Lamers et al.(2006, Am. J. Clin. Nutr. 84(1):156-61): RBC folate={(whole blood folate×100)−[plasma folate×(100−hematocrit)]}/hematocrit.
Serum MCP-1 levels were measured using a human MCP-1 ELISA kit (BD Biosciences) according to the manufacturer's instructions. Total homocysteine (tHcy) and both plasma and red blood cell (RBC) folate derivatives were measured using stable isotope dilution liquid chromatography, multiple reaction monitoring, mass spectrometry (LC/MRM/MS) as described elsewhere herein. […]

[3] = test system: plasma folate; experiment: Plasma folates (LC-MRM/MS) before and after low dose MTX treatment of arthritis patients; format: in vivo, human; settings: 24 wk of MTX, Caucasians, 119 pairs
Description: To each plasma sample (300 μL) was added water (200 μL) containing 1% ascorbic acid and 10 mM 2-mercaptoethanol. After the addition of 20 μL internal standard solution (150 pg/μL each of [^13C5]-FA, [^13C5]-THF, [^13C5]-5-MTHF, and [^13C5]-5-FTHF) the samples were thoroughly mixed. Water (1 mL) containing 1% ascorbic acid and 1% methanol was added prior to purification using SPE columns.
The following experiments were designed to assess the phenotypic changes elicited by low dose methotrexate (MTX) treatment. MTX has been widely used as the anti-inflammatory and immunomodulatory agent for the treatment of patients with rheumatoid arthritis and other inflammatory disorders by weekly low-dose (7.5-25 mg).
This indicates a quantitative and qualitative modification of folate phenotype (even though folic acid supplements were prescribed along with the MTX) that results in elevated MCP-1 concentrations (p<0.0001).

Stability under both acidic and basic conditions [1] | SMILES | RBC (5,10MT/5MTH) (mean ± SD) ([2]; baseline 0.026 ± 0.095) | RBC(THF/5MTH) (mean ± SD) ([2]; baseline 0.118 ± 0.387) | Plasma FA (mean ± SD) ([3]; baseline 7.10 ± 26.62, folic acid supplements prescribed along with MTX) | Plasma 5MTH (mean ± SD) ([3]; baseline 53.14 ± 31.14)
extremely unstable | Nc1nc2c(c(=O)[nH]1)N1CN(c3ccc(C(=O)N[C@@H](CCC(=O)O)C(=O)O)cc3)CC1CN2 (some centres unmarked) [5,10-METHF, 5,10-methylenetetrahydrofolic acid] | – | – | – | –
– | CN(Cc1cnc2nc(N)nc(N)c2n1)c1ccc(C(=O)N[C@@H](CCC(=O)O)C(=O)O)cc1 [MTX, methotrexate] | 0.051 ± 0.241 | 0.175 ± 0.757 | 36.20 ± 63.60 | 39.90 ± 31.51
